Reference: BigSolDB 2.1

O=C(O)c1ccc(O)c(O)c1
solubility (mole fraction)
Conditions	293.15 K	298.15 K	303.15 K	308.15 K	313.15 K	318.15 K
in ethanol	0.0302	0.041	0.0495	0.0665	0.0847	0.108
in ethyl acetate	0.00478	0.00671	0.00906	0.013	0.0179	0.0233
in methanol	0.0337	0.0451	0.0654	0.093	0.126	0.167
in methyl acetate	0.00563	0.00843	0.0115	0.0167	0.0225	0.03
